Test results reported in ChEMBL document CHEMBL3991601, “The target landscape of clinical kinase drugs” (Science, 2017).
Active and inactive are the calls of the source.

Key:
[1] = target: Calcium/calmodulin-dependent protein kinase type II subunit gamma (Homo sapiens, UniProt Q13555)
[2] = target: Fibroblast growth factor receptor 1 (Homo sapiens, UniProt P11362)
[3] = target: T1, Inhibitor of nuclear factor kappa-B kinase subunit epsilon (Homo sapiens, UniProt Q14164)
T1 sequence (Q14164 whole entry): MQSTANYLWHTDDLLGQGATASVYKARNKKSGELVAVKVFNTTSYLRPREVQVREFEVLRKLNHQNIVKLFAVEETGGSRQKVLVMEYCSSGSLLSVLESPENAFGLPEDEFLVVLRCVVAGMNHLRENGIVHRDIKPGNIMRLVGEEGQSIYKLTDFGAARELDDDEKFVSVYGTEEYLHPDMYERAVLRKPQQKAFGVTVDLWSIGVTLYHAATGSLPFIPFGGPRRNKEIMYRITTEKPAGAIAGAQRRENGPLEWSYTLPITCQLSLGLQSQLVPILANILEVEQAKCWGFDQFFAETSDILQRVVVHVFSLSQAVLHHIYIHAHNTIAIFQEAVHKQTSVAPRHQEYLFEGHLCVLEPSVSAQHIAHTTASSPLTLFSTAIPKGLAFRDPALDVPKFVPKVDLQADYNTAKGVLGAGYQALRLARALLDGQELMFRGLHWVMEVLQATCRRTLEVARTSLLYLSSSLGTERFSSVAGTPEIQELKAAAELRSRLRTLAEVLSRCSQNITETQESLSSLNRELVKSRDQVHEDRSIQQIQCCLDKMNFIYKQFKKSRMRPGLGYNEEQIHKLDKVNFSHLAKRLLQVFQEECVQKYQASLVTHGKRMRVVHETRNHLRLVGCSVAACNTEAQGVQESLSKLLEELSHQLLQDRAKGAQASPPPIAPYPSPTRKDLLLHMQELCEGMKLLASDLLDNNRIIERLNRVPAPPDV

[4] = target: Mitogen-activated protein kinase 1 (Homo sapiens, UniProt P28482)
Sequence of Mitogen-activated protein kinase 1 (P28482 whole entry): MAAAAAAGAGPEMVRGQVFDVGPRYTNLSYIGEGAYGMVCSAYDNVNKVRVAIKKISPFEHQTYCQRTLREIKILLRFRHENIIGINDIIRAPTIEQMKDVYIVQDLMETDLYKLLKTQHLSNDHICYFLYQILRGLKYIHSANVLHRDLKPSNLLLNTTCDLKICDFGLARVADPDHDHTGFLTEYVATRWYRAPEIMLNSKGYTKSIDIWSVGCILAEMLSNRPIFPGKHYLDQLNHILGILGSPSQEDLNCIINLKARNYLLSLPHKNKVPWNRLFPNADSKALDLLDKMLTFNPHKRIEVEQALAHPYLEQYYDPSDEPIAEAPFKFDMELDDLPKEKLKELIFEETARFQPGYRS

[5] = target: NADH dehydrogenase [ubiquinone] 1 alpha subcomplex subunit 13 (Homo sapiens, UniProt Q9P0J0)
Sequence of NADH dehydrogenase [ubiquinone] 1 alpha subcomplex subunit 13 (Q9P0J0 whole entry, one chain of several): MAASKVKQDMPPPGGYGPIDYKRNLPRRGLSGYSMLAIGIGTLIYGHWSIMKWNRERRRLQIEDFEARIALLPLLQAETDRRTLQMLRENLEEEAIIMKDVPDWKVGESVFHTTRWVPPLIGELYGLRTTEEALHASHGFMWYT

[6] = target: Serine/threonine-protein kinase N2 (Homo sapiens, UniProt Q16513)
Sequence of Serine/threonine-protein kinase N2 (Q16513 whole entry): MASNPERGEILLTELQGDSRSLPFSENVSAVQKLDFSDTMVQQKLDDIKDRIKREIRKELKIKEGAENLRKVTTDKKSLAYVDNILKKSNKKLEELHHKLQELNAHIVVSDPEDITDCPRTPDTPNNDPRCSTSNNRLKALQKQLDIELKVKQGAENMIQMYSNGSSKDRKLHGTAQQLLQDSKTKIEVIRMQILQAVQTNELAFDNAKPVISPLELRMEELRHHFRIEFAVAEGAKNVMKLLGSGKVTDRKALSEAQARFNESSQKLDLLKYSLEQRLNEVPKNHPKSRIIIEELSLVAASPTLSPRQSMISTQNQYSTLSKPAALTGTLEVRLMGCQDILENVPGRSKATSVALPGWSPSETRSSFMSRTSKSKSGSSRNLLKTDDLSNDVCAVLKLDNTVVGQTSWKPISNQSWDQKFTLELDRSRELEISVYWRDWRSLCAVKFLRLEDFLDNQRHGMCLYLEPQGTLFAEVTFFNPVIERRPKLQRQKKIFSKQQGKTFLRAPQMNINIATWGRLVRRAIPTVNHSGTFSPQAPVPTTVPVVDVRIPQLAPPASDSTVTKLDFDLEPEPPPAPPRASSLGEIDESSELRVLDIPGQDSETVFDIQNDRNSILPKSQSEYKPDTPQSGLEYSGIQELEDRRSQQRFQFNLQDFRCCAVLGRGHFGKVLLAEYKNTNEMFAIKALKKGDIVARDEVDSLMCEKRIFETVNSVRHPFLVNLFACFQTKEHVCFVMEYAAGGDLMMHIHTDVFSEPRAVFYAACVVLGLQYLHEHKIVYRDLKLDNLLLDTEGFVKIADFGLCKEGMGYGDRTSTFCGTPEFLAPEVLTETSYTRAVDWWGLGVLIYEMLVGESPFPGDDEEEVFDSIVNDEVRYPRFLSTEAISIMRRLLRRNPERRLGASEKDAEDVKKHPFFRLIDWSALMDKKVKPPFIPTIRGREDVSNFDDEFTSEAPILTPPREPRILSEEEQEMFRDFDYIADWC

[7] = target: T2, Rab-like protein 3 (Homo sapiens, UniProt Q5HYI8)
T2 sequence (Q5HYI8 whole entry): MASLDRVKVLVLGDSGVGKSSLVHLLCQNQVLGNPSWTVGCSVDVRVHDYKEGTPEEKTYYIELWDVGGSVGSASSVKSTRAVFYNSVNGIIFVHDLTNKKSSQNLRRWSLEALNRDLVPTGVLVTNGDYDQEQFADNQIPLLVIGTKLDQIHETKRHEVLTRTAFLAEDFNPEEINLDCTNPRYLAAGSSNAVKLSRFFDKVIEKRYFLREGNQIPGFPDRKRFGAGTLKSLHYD

[8] = target: T3, Signal recognition particle receptor subunit alpha (Homo sapiens, UniProt P08240)
T3 sequence (P08240 whole entry): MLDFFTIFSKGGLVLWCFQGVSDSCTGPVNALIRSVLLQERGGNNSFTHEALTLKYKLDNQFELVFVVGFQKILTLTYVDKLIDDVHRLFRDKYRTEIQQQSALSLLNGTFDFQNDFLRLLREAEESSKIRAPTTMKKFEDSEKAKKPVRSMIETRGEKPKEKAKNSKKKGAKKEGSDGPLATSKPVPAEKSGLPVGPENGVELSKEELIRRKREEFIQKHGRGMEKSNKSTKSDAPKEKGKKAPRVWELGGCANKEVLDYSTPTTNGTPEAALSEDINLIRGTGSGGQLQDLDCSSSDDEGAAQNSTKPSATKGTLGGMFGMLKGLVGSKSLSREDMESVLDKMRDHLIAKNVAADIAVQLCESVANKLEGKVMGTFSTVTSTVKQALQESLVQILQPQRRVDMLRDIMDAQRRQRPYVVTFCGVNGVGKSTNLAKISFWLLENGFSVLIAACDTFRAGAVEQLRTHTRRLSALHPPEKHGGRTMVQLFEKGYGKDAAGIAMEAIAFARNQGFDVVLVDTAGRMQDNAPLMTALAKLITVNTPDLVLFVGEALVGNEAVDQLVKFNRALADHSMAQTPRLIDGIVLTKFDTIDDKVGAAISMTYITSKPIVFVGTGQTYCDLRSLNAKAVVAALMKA

[9] = target: T4, STE20-related kinase adapter protein alpha (Homo sapiens, UniProt Q7RTN6)
T4 sequence (Q7RTN6 whole entry): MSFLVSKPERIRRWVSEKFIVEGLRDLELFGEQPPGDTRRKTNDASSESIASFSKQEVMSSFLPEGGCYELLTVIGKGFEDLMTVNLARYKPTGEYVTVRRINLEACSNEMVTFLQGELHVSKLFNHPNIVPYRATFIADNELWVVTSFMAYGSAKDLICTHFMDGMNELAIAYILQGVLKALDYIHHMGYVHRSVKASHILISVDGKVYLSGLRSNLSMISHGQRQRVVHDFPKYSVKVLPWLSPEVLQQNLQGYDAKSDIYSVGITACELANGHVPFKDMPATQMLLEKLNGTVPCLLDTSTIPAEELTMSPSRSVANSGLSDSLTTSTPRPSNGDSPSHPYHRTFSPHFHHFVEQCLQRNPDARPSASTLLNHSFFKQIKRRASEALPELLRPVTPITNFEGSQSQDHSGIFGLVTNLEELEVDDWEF

[10] = target: T5, Uncharacterized protein FLJ45252 (Homo sapiens, UniProt Q6ZSR9); settings: read-out: Kd apparent; k-562, colo 205, sk-n-be(2) and mv-4-11
T5 sequence (Q6ZSR9 whole entry): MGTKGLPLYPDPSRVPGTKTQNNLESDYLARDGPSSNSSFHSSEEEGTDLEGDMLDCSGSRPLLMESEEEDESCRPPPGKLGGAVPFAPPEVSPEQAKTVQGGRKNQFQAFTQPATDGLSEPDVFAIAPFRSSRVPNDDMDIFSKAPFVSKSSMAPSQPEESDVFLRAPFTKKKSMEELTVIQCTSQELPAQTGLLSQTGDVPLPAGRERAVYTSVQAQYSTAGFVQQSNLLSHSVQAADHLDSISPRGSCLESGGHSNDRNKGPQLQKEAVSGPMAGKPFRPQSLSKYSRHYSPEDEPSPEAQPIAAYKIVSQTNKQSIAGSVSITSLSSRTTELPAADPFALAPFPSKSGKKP
Note: in the data inactive means no Kd found up to 30 µM.

Sequence of Calcium/calmodulin-dependent protein kinase type II subunit gamma (Q13555 whole entry): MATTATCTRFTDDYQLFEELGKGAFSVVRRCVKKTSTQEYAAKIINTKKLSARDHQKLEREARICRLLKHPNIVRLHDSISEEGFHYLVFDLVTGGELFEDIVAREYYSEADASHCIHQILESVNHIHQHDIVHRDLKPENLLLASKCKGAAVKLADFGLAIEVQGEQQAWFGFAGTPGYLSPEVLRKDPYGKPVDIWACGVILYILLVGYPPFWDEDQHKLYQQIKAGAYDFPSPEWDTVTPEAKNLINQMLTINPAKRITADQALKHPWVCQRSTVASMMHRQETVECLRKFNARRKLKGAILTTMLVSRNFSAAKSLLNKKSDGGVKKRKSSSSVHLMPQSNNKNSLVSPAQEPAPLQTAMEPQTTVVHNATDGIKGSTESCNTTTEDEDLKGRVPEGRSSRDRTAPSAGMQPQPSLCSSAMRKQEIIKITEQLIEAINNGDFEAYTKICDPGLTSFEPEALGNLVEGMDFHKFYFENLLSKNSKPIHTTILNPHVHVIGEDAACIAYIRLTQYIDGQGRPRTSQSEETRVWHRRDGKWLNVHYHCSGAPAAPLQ
Sequence of Fibroblast growth factor receptor 1 (P11362 whole entry): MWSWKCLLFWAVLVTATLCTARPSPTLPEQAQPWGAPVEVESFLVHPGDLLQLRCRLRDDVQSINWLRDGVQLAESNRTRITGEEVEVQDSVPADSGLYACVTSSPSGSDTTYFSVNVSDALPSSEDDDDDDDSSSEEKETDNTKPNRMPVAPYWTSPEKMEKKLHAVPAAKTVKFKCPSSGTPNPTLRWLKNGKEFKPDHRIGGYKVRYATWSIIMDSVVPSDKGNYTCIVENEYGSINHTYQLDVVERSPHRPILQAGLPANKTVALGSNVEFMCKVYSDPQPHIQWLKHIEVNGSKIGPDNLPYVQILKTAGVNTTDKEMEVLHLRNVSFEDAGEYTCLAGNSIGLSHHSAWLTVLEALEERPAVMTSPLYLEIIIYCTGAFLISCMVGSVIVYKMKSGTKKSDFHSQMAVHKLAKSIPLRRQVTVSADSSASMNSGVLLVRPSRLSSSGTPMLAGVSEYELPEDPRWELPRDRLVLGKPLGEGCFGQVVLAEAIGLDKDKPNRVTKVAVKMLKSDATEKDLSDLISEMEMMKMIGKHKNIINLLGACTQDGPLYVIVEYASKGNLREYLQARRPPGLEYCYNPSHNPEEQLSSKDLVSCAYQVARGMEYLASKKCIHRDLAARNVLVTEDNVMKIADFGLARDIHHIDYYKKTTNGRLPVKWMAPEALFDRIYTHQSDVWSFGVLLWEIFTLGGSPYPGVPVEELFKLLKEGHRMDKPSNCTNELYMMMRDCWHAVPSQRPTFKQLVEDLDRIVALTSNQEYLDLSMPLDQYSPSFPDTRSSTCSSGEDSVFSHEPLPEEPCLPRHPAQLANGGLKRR

Structure (SMILES)	Kd [1]	Kd [2]	Kd [3]	Kd [4]	Kd [6]	Kd [7]	Kd [8]	Kd [9]	Kd [10]	Kd [5]
Cn1cc(-c2[nH]c3cc(NC(=O)[C@H](N)C4CCCCC4)cc4c3c2C=NNC4=O)cn1	> 30 µM (inactive)	0.192 µM (active)	> 30 µM (inactive)	> 30 µM (inactive)	> 30 µM (inactive)	> 30 µM (inactive)	> 30 µM (inactive)	> 30 µM (inactive)	0.002 µM (active)	> 30 µM (inactive)
COc1cc2ncnc(Nc3ccc(O)cc3)c2cc1OC [WHI-P131]	> 30 µM (inactive)	> 30 µM (inactive)	> 30 µM (inactive)	> 30 µM (inactive)	> 30 µM (inactive)	> 30 µM (inactive)	> 30 µM (inactive)	> 30 µM (inactive)	1.54 µM (active)	> 30 µM (inactive)
NC[C@@](O)(c1ccc(Cl)cc1)c1ccc(-c2cn[nH]c2)cc1 [AT-13148]	> 30 µM (inactive)	> 30 µM (inactive)	> 30 µM (inactive)	> 30 µM (inactive)	0.009 µM (active)	–	> 30 µM (inactive)	> 30 µM (inactive)	> 30 µM (inactive)	> 30 µM (inactive)
CC1(COc2ccc3c(c2)ncn3-c2ccc3cccc(N4CCC(N)CC4)c3n2)COC1 [CRENOLANIB]	0.766 µM (active)	> 30 µM (inactive)	> 30 µM (inactive)	> 30 µM (inactive)	1.21 µM (active)	> 30 µM (inactive)	–	> 30 µM (inactive)	> 30 µM (inactive)	> 30 µM (inactive)
CNC(=O)c1ccc(Nc2ncc(C(F)(F)F)c(NCc3nccnc3N(C)S(C)(=O)=O)n2)cc1 [DEFACTINIB]	> 30 µM (inactive)	> 30 µM (inactive)	> 30 µM (inactive)	> 30 µM (inactive)	> 30 µM (inactive)	> 30 µM (inactive)	> 30 µM (inactive)	> 30 µM (inactive)	> 30 µM (inactive)	> 30 µM (inactive)
N#CCNC(=O)c1ccc(-c2ccnc(Nc3ccc(N4CCOCC4)cc3)n2)cc1 [MOMELOTINIB]	–	> 30 µM (inactive)	0.2 µM (active)	> 30 µM (inactive)	> 30 µM (inactive)	> 30 µM (inactive)	> 30 µM (inactive)	–	–	> 30 µM (inactive)
C=CCN(/C=C1/C(=O)O[C@H](COC)[C@@]2(C)C1=C(O)C(=O)C1=C2[C@H](OC(C)=O)C[C@]2(C)C(=O)CC[C@@H]12)CC=C [SONOLISIB]	> 30 µM (inactive)	> 30 µM (inactive)	> 30 µM (inactive)	> 30 µM (inactive)	> 30 µM (inactive)	> 30 µM (inactive)	–	> 30 µM (inactive)	> 30 µM (inactive)	> 30 µM (inactive)
C=CC(=O)Nc1cc(Nc2nccc(-c3cn(C)c4ccccc34)n2)c(OC)cc1N(C)CCN(C)C [OSIMERTINIB]	> 30 µM (inactive)	> 30 µM (inactive)	> 30 µM (inactive)	> 30 µM (inactive)	> 30 µM (inactive)	–	> 30 µM (inactive)	> 30 µM (inactive)	–	> 30 µM (inactive)

More lines, main results first:

Kd [1]	Kd [2]	Kd [3]	Kd [4]	Kd [6]	Kd [7]	Kd [8]	Kd [9]	Kd [10]	Structure (SMILES)	Kd [5]
> 30 µM (inactive)	> 30 µM (inactive)	> 30 µM (inactive)	> 30 µM (inactive)	> 30 µM (inactive)	> 30 µM (inactive)	> 30 µM (inactive)	> 30 µM (inactive)	> 30 µM (inactive)	NC(=O)c1ccc(N(C(N)=O)c2c(F)cccc2F)nc1-c1ccc(F)cc1F [VX-702]	> 30 µM (inactive)
> 30 µM (inactive)	0.777 µM (active)	> 30 µM (inactive)	> 30 µM (inactive)	> 30 µM (inactive)	> 30 µM (inactive)	> 30 µM (inactive)	0.316 µM	> 30 µM (inactive)	Cc1cc(Nc2nc(N[C@@H](C)c3ncc(F)cn3)ncc2Cl)n[nH]1 [AZD-1480]	> 30 µM (inactive)
> 30 µM (inactive)	> 30 µM (inactive)	> 30 µM (inactive)	> 30 µM (inactive)	> 30 µM (inactive)	> 30 µM (inactive)	> 30 µM (inactive)	> 30 µM (inactive)	> 30 µM (inactive)	CNC(=O)c1cc(COc2nnc(Nc3ccc(Cl)cc3)c3ccoc23)ccn1 [TELATINIB]	> 30 µM (inactive)
> 30 µM (inactive)	> 30 µM (inactive)	> 30 µM (inactive)	1.23 µM (active)	> 30 µM (inactive)	> 30 µM (inactive)	–	> 30 µM (inactive)	> 30 µM (inactive)	O[C@H]1CC[C@H](Nc2ncc3nc(Nc4c(F)cc(F)cc4F)n([C@H]4CCOC4)c3n2)CC1 [TANZISERTIB]	> 30 µM (inactive)
> 30 µM (inactive)	> 30 µM (inactive)	> 30 µM (inactive)	> 30 µM (inactive)	> 30 µM (inactive)	> 30 µM (inactive)	> 30 µM (inactive)	> 30 µM (inactive)	–	FC(F)(F)c1ccc(CNc2ccc(Cc3c[nH]c4ncc(Cl)cc34)cn2)cn1 [PEXIDARTINIB]	> 30 µM (inactive)
> 30 µM (inactive)	> 30 µM (inactive)	> 30 µM (inactive)	> 30 µM (inactive)	> 30 µM (inactive)	> 30 µM (inactive)	> 30 µM (inactive)	> 30 µM (inactive)	> 30 µM (inactive)	Cn1c(=O)c(F)c(Nc2ccc(I)cc2F)c2c(=O)n(C[C@@H](O)CO)cnc21 [TAK-733]	–
> 30 µM (inactive)	> 30 µM (inactive)	> 30 µM (inactive)	> 30 µM (inactive)	> 30 µM (inactive)	–	> 30 µM (inactive)	> 30 µM (inactive)	> 30 µM (inactive)	O=C(Nc1ccc(OC(F)(F)F)cc1)c1sccc1NCc1ccnc2ccccc12 [OSI-930]	> 30 µM (inactive)
